How the values were obtained:
PPARG = assay: Western blot of PPARG protein in IMR-32 cells; type: cell-based, human; settings: 150 ppb, 6 hours
Experimental: (§1) IMR-32 cells were seeded on 6-well plates and then treated with control and various compounds for 6 hours and 24 hours, as described above. After treatments, cells were rinsed with ice-cold PBS and lysed in ice-cold RIPA buffer containing complete proteinase and phosphatase inhibitors (Thermo-Fisher Scientific, Waltham, Mass.) on ice for 30 min Cell lysates were collected using a cell scraper and transfer pipette and then centrifuged at 12000×g for 30 min at 4° C. to remove the DNA pellet and obtain the protein extract. Protein levels in the supernatant of these cell lysates were determined using the Pierce Micro-BCA protein assay kit (Thermo Scientific-Piece Biotechnology, Rockford, Ill.) according to the manufacturer's protocol […]
(§2) Positive signals on the membrane blots were detected using Amersham's enhanced chemiluminescence (ECL) Western Blotting Prime Detection reagents (GE healthcare Lifescience, Pittsburgh, Pa.). Images of these luminescence signals on the membrane blots were captured using the LI-COR Odyssey Fc Image system (Lincoln, Nebr.). […] Protein band densities in the Western blots were determined using the Li—COR Image studio software or NIH ImageJ software, and then normalized by ACTB protein level in each sample. […]

APOE4 = assay: Western blot of APOE4 protein in IMR-32 cells; type: cell-based, human; settings: 150 ppb
Experimental: as §1, §2

G6PC = assay: Western blot of G6PC protein in IMR-32 cells; type: cell-based, human; settings: 150 ppb, 24 hours
Experimental: as §1, §2

[1] = tested on: Aβ plaque deposits (Aβ1-42); assay: IHC analysis of amyloid deposits in the brains of APP/PS1 mice; type: in vivo, mouse; settings: diet with 1 ppm Se from Compound C, 6 to 12 months of age
Experimental: Male APPΔNLh/ΔNLh×PS1P246 L/246 L knock-in model mice of Alzheimer's disease (abbreviated APP/PS1) were genotyped using standard primers for human APP (Amyloid Precursor Protein) and human PS1 (PSEN1). These APP/PS1 mice starting at the age of 6 months, were fed either a control diet containing normal levels of selenium (0.3 ppm from plant and inorganic selenium salt sources) or an experimental diet containing Compound C (the control diet to which was added 1 ppm Se from Compound C) for 6 months.
At 12 months of age, the mice were euthanized and the brains quickly removed, the cerebellum isolated and the hemispheres snap-frozen in liquid nitrogen and then stored at −80° C. for further immunohistochemistry (IHC), protein and RNA analysis. All procedures conducted on these animal studies were pre-approved by the University of Kentucky IACUC committee.
Frozen brain tissues were sectioned using a Leica-CM1900 cryostat (Leica Microsystems Inc., Bannockburn, Ill.), as described previously (Zhang et al, 2008. Biochem Biophys Res Commun). These frozen brain sections were subjected to immunohistochemistry staining of Aβ plaques using a specific polyclonal antibody against Aβ1-42 (Abcam) and the Rabbit ImmunoCruz Staining System (Santa Cruz Biotechnology, Santa Cruz, Calif.) according to the manufacturer's protocol. […]

[2] = tested on: gene transcripts in the brains of APP/PS1 mice; assay: Microarray analysis of RNA expression in the brains of APP/PS1 mice; type: in vivo, mouse
[3] = APP/PS1 mouse brain, Compound C diet vs control diet

C[Se]C[C@H]1O[C@@H](n2cnc3c(N)ncnc32)C(O)C1O (stereo in doubt) [Compound C, 5′-deoxy-5′-methylselenoadenosine] was tested. Which PPARG protein expression (PPARG) did it give?
The PPARG protein expression was “markedly attenuated”.

And the APOE4 protein levels (APOE4; 6 hours)?
The APOE4 protein levels was “not for 6 hour”.

And the APOE4 protein levels (APOE4; 24 hours)?
The APOE4 protein levels was “markedly decreased”.

What about the G6Pc protein levels (G6PC) of the same molecule?
Its G6Pc protein levels is “visibly increased”.

What about the “increase of G6Pc protein expression levels” value (G6PC; quantitative analysis) of the same molecule?
The value was ~3 fold.

What about the “Aβ plaque deposits in the brain cortex (IHC, Aβ1-42 staining)” value [1] of the same molecule?
The value was “much fewer and/or weaker-staining”.

And the “Aβ plaque deposits in the brain hippocampus (IHC, Aβ1-42 staining)” value [1]?
The value was “much fewer and/or weaker-staining”.

What about the “number of genes with regulated expression in the brains” value ([2]; APP/PS1 mice, fold change of more than 1.2) of the same molecule?
The value was 2217 genes.

What about the “Fold Change, Akap5” value [2, 3] of the same molecule?
Its value is 1.589 fold.

And the “Fold Change, Apbb1” value [2, 3]?
The value was −1.293 fold.

What about the “Fold Change, App” value [2, 3] of the same molecule?
The value was −1.22 fold.

What about the “Fold Change, Bcl2” value [2, 3] of the same molecule?
Its value is 1.246 fold.

What about the “Fold Change, Camk2a” value [2, 3] of the same molecule?
Its value is −1.67 fold.

What about the “Fold Change, Cnr1” value [2, 3] of the same molecule?
The value was −1.492 fold.

And the “Fold Change, Ddx5” value [2, 3]?
The value was 1.26 fold.

And the “Fold Change, Dlx5” value [2, 3]?
The value was 2.09 fold.

And the “Fold Change, Drd1” value [2, 3]?
Its value is 4.22 fold.

And the “Fold Change, Foxp2” value [2, 3]?
Its value is 2.52 fold.

What about the “Fold Change, Gabra1” value [2, 3] of the same molecule?
Its value is −1.407 fold.

And the “Fold Change, Gabra2” value [2, 3]?
The value was 1.275 fold.

What about the “Fold Change, Gabrg1” value [2, 3] of the same molecule?
Its value is 1.375 fold.

And the “Fold Change, Gad2” value [2, 3]?
Its value is 1.69 fold.

And the “Fold Change, Gpr6” value [2, 3]?
The value was 9.07 fold.

What about the “Fold Change, Gpr88” value [2, 3] of the same molecule?
The value was 6.47 fold.

What about the “Fold Change, Grm4” value [2, 3] of the same molecule?
The value was 1.418 fold.

And the “Fold Change, Htr2c” value [2, 3]?
Its value is 1.797 fold.

What about the “Fold Change, Isl1” value [2, 3] of the same molecule?
The value was 11.32 fold.

And the “Fold Change, Mapk8” value [2, 3]?
Its value is −1.289 fold.

And the “Fold Change, Mapt” value [2, 3]?
Its value is −1.21 fold.

And the “Fold Change, Meis2” value [2, 3]?
Its value is 2.04 fold.

And the “Fold Change, Nrxn1” value [2, 3]?
The value was −1.444 fold.

And the “Fold Change, Pak1” value [2, 3]?
Its value is −1.201 fold.

What about the “Fold Change, Pde10a” value [2, 3] of the same molecule?
The value was 2.91 fold.

What about the “Fold Change, Penk” value [2, 3] of the same molecule?
The value was 4.068 fold.

What about the “Fold Change, Prdx1” value [2, 3] of the same molecule?
Its value is 1.272 fold.

What about the “Fold Change, Prkacb” value [2, 3] of the same molecule?
Its value is −1.396 fold.

What about the “Fold Change, Prkar2b” value [2, 3] of the same molecule?
Its value is 1.439 fold.

What about the “Fold Change, Prkcd” value [2, 3] of the same molecule?
Its value is 1.813 fold.

And the “Fold Change, Prnp” value [2, 3]?
The value was −1.256 fold.

And the “Fold Change, Rarb” value [2, 3]?
Its value is 4.03 fold.

And the “Fold Change, Rims1” value [2, 3]?
Its value is −1.459 fold.

What about the “Fold Change, Scarb1” value [2, 3] of the same molecule?
Its value is 1.56 fold.

What about the “Fold Change, Scp2” value [2, 3] of the same molecule?
The value was 1.204 fold.

What about the “Fold Change, Sez6” value [2, 3] of the same molecule?
The value was 1.33 fold.

And the “Fold Change, Sod1” value [2, 3]?
Its value is 1.274 fold.

And the “Fold Change, Sorl1” value [2, 3]?
The value was −1.41 fold.

What about the “Fold Change, Sox2” value [2, 3] of the same molecule?
The value was 1.274 fold.

What about the “Fold Change, Tac1” value [2, 3] of the same molecule?
Its value is 3.36 fold.

What about the “Fold Change, ZIC1” value [2, 3] of the same molecule?
The value was 3.25 fold.

And the “Fold Change, Zic3” value [2, 3]?
Its value is 2.28 fold.

What about the “Fold Change, Zic4” value [2, 3] of the same molecule?
Its value is 1.75 fold.

And the “Fold Change, Zic5” value [2, 3]?
The value was 1.53 fold.

And the “Foxo 1, 3 and 4 mRNA levels” value [2, 3]?
Its value is “no significant change”.
